Laboratory results published in patent US9738628B2, “Substituted 1H-indazol-1-OL analogs as inhibitors of beta catenin/Tcf protein-protein interactions” (University of Utah Research Foundation, priority 2012, dated 2017).

Experiments:
[1] = tested on: HCT116 colon cancer cell line; assay: MTS-based cell proliferation inhibition assay; set-up: species or system human; conditions: dose-dependent (FIG. 2)
β-catenin/Tcf4 = β-catenin/Tcf4 (Homo sapiens (Human), UniProt P35222); assay: Fluorescence polarization (FP) competitive inhibition assay, β-catenin/Tcf4; format: binding; conditions: Table 2, mean ± SD (n=3)
Method: Experiments were performed in 96-well Microfluor 2 black plates (Waltham, Mass.), and the samples were read by a Synergy 2 plate reader (Biotek, Winooski, Vt.). […] The final reaction volume is 100 μL.

β-catenin/Tcf4, sequence (P35222 138-686): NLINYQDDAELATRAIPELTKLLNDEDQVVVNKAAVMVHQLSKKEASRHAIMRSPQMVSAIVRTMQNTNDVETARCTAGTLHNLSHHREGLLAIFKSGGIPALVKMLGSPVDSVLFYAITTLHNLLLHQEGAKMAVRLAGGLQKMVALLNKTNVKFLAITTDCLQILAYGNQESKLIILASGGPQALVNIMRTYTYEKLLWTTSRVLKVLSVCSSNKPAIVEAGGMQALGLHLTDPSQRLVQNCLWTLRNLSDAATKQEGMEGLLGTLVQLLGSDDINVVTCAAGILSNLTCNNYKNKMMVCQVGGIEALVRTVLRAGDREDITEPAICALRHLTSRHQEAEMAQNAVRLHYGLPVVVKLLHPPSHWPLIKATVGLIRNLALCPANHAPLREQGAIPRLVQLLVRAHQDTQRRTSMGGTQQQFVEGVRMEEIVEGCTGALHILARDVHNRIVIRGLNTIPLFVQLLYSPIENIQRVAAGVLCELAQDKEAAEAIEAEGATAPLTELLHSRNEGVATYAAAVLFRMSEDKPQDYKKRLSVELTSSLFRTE

Substance | inhibition of growth of colon cancer cell HCT116 [1] | Ki (β-catenin/Tcf4) [µM]
3-(2-(1-hydroxy-1H-indazol-5-yl)ethyl)-1,2,4-oxadiazole-5(4H)-thione [Compound 14] | inhibit the proliferation | –
3-((1-hydroxy-1H-indazol-5-yl)methyl)-1,2,4-oxadiazol-5(4H)-one [Compound 10] | – | 125 ± 1.3
5-(2-(2H-tetrazol-5-yl)ethyl)-1H-indazol-1-ol [Compound 12] | inhibit the proliferation | –
